# Test results: publication PMC12837263, “β,β-Dimethylacrylalkannin Restores Colistin Efficacy Against mcr- and TCS-Mediated Resistant Gram-Negative Bacteria via Membrane Disturbance” (Antibiotics, 2025)
# How the values were obtained:
# Type in all cases: cell-based
# A. baumannii ATCC 19606 = assay: Checkerboard assay (MIC, FICI); details: 19606
# Experimental: (§1) The FICI of β,β-Dim–colistin combination was determined by a checkerboard assay. Briefly, two-fold serial dilutions of β,β-Dim and colistin were prepared in a 96-well plate. After incubation at 37 °C for 18 h with bacterial suspension (10^6 CFU/mL), OD600 values were measured. FICI = (MICβ,β-Dim in combination/MICβ,β-Dim) + (MICcolistin in combination/MICcolistin). The synergistic effect of β,β-Dim with other antibiotics was measured in the same way. Synergy was considered to be an FICI ≤ 0.5.
# E. coli 13f4(mcr-1) = assay: Checkerboard assay (MIC, FICI); details: 13f4
# Experimental: as §1
# E. coli ATCC 25922 = assay: Checkerboard assay (MIC, FICI); details: 25922
# Experimental: as §1
# [1] = test system: E. coli BW25113-184-mcr-1; assay: Checkerboard assay (MIC, FICI); details: BW25113-184-mcr-1
# Experimental: as §1
# E. coli BW25113-184 = assay: Checkerboard assay (MIC, FICI); details: BW25113-184
# Experimental: as §1
# [2] = test system: E. coli BW25113-pmrAD82N(pmrA); assay: Checkerboard assay (MIC, FICI); details: BW25113-pmrAD82N
# Experimental: as §1
# [3] = test system: E. coli BW25113-pmrBR93P(pmrB); assay: Checkerboard assay (MIC, FICI); details: BW25113-pmrBR93P
# Experimental: as §1
# E. coli ZJ71(mcr-1) = assay: Checkerboard assay (MIC, FICI); details: ZJ71
# Experimental: as §1
# E. coli pHSG299-mcr-3 = assay: Checkerboard assay (MIC, FICI); details: pHSG299-mcr-3
# Experimental: as §1
# K. pneumoniae 109(mcr-8) = assay: Checkerboard assay (MIC, FICI); details: 109
# Experimental: as §1
# K. pneumoniae 126(mcr-8) = assay: Checkerboard assay (MIC, FICI); details: 126
# Experimental: as §1
# [4] = test system: K. pneumoniae 197(mcr-1、blaNDM); assay: Checkerboard assay (MIC, FICI); details: 197
# Experimental: as §1
# K. pneumoniae 20(mcr-1) = assay: Checkerboard assay (MIC, FICI); details: 20(mcr-1)
# Experimental: as §1
# [5] = test system: K. pneumoniae 251(mgrB、phoP、pmrA、blaKPC); assay: Checkerboard assay (MIC, FICI); details: 251
# Experimental: as §1
# [6] = test system: K. pneumoniae 29(mcr-8、pmrB、blaNDM); assay: Checkerboard assay (MIC, FICI); details: 29
# Experimental: as §1
# [7] = test system: K. pneumoniae 492(mcr-1、blaNDM); assay: Checkerboard assay (MIC, FICI); details: 492
# Experimental: as §1
# [8] = test system: K. pneumoniae 57(mcr-9、blaNDM); assay: Checkerboard assay (MIC, FICI); details: 57
# Experimental: as §1
# [9] = test system: K. pneumoniae 650(mgrB、phoP、pmrA、blaKPC); assay: Checkerboard assay (MIC, FICI); details: 650
# Experimental: as §1
# [10] = test system: K. pneumoniae 667(phoP、pmrA、blaKPC); assay: Checkerboard assay (MIC, FICI); details: 667
# Experimental: as §1
# K. pneumoniae ATCC 13883 = assay: Checkerboard assay (MIC, FICI); details: 13883
# Experimental: as §1
# P. aeruginosa 9(mcr-1) = assay: Checkerboard assay (MIC, FICI); details: P. aeruginosa 9
# Experimental: as §1
# P. aeruginosa PAO1 = assay: Checkerboard assay (MIC, FICI); details: PAO1
# Experimental: as §1
# [11] = test system: S. Typhimurium 9891(mcr-1); assay: Checkerboard assay (MIC, FICI); details: 9891
# Experimental: as §1
# [12] = test system: S. Typhimurium ATCC 14028; assay: Checkerboard assay (MIC, FICI); details: 14028
# Experimental: as §1
# [13] = test system: K. pneumoniae, E. coli, Salmonella, P. aeruginosa, and A. baumannii; assay: Checkerboard assay, panel of tested strains (summary statements); details: with β,β-Dim; summary over tested strains
# Experimental: as §1
# [14] = test system: E. coli (including mcr-1, mcr-3, and pmrA/B); assay: Checkerboard assay, colistin-resistant E. coli (summary); details: with β,β-Dim
# Experimental: as §1
# K. pneumoniae 667 = assay: Bacterial growth curves; details: β,β-Dim 4 µg/mL, colistin 0.5 µg/mL, alone or combined; 24 h
# Experimental: Overnight cultures of K. pneumoniae 667 and E. coli 13f4 were diluted to 10^6 CFU/mL; then, β,β-Dim (4 μg/mL), colistin (0.5 or 2 μg/mL), and their combination were co-incubated with bacterial suspensions in a 96-well plate. OD600 values were monitored hourly over a 24 h period.
substance,measurement,setting,value
colistin,MIC of colistin,A. baumannii ATCC 19606; alone,0.5 µg/mL
same,Potentation,A. baumannii ATCC 19606; fold drop of colistin MIC,64
same,MIC of colistin [combination],"A. baumannii ATCC 19606; with β,β-Dim",0.0078 µg/mL
same,MIC of colistin,E. coli 13f4(mcr-1); alone,4 µg/mL
same,Potentation,E. coli 13f4(mcr-1); fold drop of colistin MIC,4
same,MIC of colistin [combination],"E. coli 13f4(mcr-1); with β,β-Dim",1 µg/mL
same,MIC of colistin,E. coli ATCC 25922; alone,0.125 µg/mL
same,Potentation,E. coli ATCC 25922; fold drop of colistin MIC,4
same,MIC of colistin [combination],"E. coli ATCC 25922; with β,β-Dim",0.0313 µg/mL
same,MIC of colistin,[1]; alone,4 µg/mL
same,Potentation,[1]; fold drop of colistin MIC,4
same,MIC of colistin [combination],"[1]; with β,β-Dim",1 µg/mL
same,MIC of colistin,E. coli BW25113-184; alone,0.125 µg/mL
same,Potentation,E. coli BW25113-184; fold drop of colistin MIC,4
same,MIC of colistin [combination],"E. coli BW25113-184; with β,β-Dim",0.0313 µg/mL
same,MIC of colistin,[2]; alone,16 µg/mL
same,Potentation,[2]; fold drop of colistin MIC,32
same,MIC of colistin [combination],"[2]; with β,β-Dim",0.5 µg/mL
same,MIC of colistin,[3]; alone,8 µg/mL
same,Potentation,[3]; fold drop of colistin MIC,32
same,MIC of colistin [combination],"[3]; with β,β-Dim",0.25 µg/mL
same,MIC of colistin,E. coli ZJ71(mcr-1); alone,4 µg/mL
same,Potentation,E. coli ZJ71(mcr-1); fold drop of colistin MIC,8
same,MIC of colistin [combination],"E. coli ZJ71(mcr-1); with β,β-Dim",0.5 µg/mL
same,MIC of colistin,E. coli pHSG299-mcr-3; alone,2 µg/mL
same,Potentation,E. coli pHSG299-mcr-3; fold drop of colistin MIC,16
same,MIC of colistin,K. pneumoniae 109(mcr-8); alone,16 µg/mL
same,Potentation,K. pneumoniae 109(mcr-8); fold drop of colistin MIC,64
same,MIC of colistin [combination],"K. pneumoniae 109(mcr-8); with β,β-Dim",0.25 µg/mL
same,MIC of colistin,K. pneumoniae 126(mcr-8); alone,> 512 µg/mL
same,Potentation,K. pneumoniae 126(mcr-8); fold drop of colistin MIC,1024
same,MIC of colistin [combination],"K. pneumoniae 126(mcr-8); with β,β-Dim",0.5 µg/mL
same,MIC of colistin,[4]; alone,4 µg/mL
same,Potentation,[4]; fold drop of colistin MIC,8
same,MIC of colistin [combination],"[4]; with β,β-Dim",0.5 µg/mL
same,MIC of colistin,K. pneumoniae 20(mcr-1); alone,64 µg/mL
same,Potentation,K. pneumoniae 20(mcr-1); fold drop of colistin MIC,64
same,MIC of colistin [combination],"K. pneumoniae 20(mcr-1); with β,β-Dim",1 µg/mL
same,MIC of colistin,[5]; alone,512 µg/mL
same,Potentation,[5]; fold drop of colistin MIC,1024
same,MIC of colistin [combination],"[5]; with β,β-Dim",0.5 µg/mL
same,MIC of colistin,[6]; alone,64 µg/mL
same,Potentation,[6]; fold drop of colistin MIC,256
same,MIC of colistin [combination],"[6]; with β,β-Dim",0.25 µg/mL
same,MIC of colistin,[7]; alone,4 µg/mL
same,Potentation,[7]; fold drop of colistin MIC,32
same,MIC of colistin [combination],"[7]; with β,β-Dim",0.125 µg/mL
same,MIC of colistin,[8]; alone,2 µg/mL
same,Potentation,[8]; fold drop of colistin MIC,32
same,MIC of colistin [combination],"[8]; with β,β-Dim",0.0625 µg/mL
same,MIC of colistin,[9]; alone,32 µg/mL
same,Potentation,[9]; fold drop of colistin MIC,16
same,MIC of colistin [combination],"[9]; with β,β-Dim",2 µg/mL
same,MIC of colistin,[10]; alone,64 µg/mL
same,Potentation,[10]; fold drop of colistin MIC,128
same,MIC of colistin [combination],"[10]; with β,β-Dim",0.5 µg/mL
same,MIC of colistin,K. pneumoniae ATCC 13883; alone,0.5 µg/mL
same,Potentation,K. pneumoniae ATCC 13883; fold drop of colistin MIC,4
same,MIC of colistin [combination],"K. pneumoniae ATCC 13883; with β,β-Dim",0.125 µg/mL
same,MIC of colistin,P. aeruginosa 9(mcr-1); alone,4 µg/mL
same,Potentation,P. aeruginosa 9(mcr-1); fold drop of colistin MIC,8
same,MIC of colistin [combination],"P. aeruginosa 9(mcr-1); with β,β-Dim",0.5 µg/mL
same,MIC of colistin,P. aeruginosa PAO1; alone,1 µg/mL
same,Potentation,P. aeruginosa PAO1; fold drop of colistin MIC,2
same,MIC of colistin [combination],"P. aeruginosa PAO1; with β,β-Dim",0.5 µg/mL
same,MIC of colistin,[11]; alone,16 µg/mL
same,Potentation,[11]; fold drop of colistin MIC,8
same,MIC of colistin [combination],"[11]; with β,β-Dim",2 µg/mL
same,MIC of colistin,[12]; alone,1 µg/mL
same,Potentation,[12]; fold drop of colistin MIC,2
same,MIC of colistin [combination],"[12]; with β,β-Dim",0.5 µg/mL
same,colistin MIC in combination,[13],≤ 2 µg/mL
same,reduction of colistin MIC,[13],4–1024 fold
same,improvement of colistin efficacy (MIC reduction),[14],4–32 fold
same,bacterial growth (growth curves),K. pneumoniae 667,"neither β,β-Dim (4 µg/mL) nor colistin (0.5 µg/mL) alone inhibited the growth"
